The values that follow come from US8791159B2, “Compound capable of binding S1P receptor and pharmaceutical use thereof” (Ono Pharmaceutical Co., Ltd., priority 2003, dated 2014).

For orientation: melting point means the temperature of the solid-liquid transition. As usually defined, the Ki is a measure of affinity in units of concentration, obtained from inhibition or displacement. Broadly, the EC50 is the midpoint of the concentration-response curve.

In data set [1] the test system is lymphocyte in blood. Nature of the data set: Counting the number of lymphocyte in blood (1). The format is in vivo, male Sprague-Dawley rats. As to conditions: oral, 10, 30 and 100 mg/kg, 4 hours after the administration, rat. How it is done: Test compounds were orally administered to male Sprague-Dawley rats (Charles Riber Laboratories, Japan, Ltd., 6-week-old at using). Four to 72 hours after the administration, the blood was collected from the aorta abdominalis under ether anesthesia. Using a portion of the thus collected blood, the number of blood cells were counted and the number of lymphocyte, neutrophil and platelet were counted. Each group had 4 or 5 animals.

The target in data set [2] is T1, EDG-6 (Homo sapiens, UniProt O95977).
T1 construct: expressed in transfected cells; host or cells: EDG-6-overexpressing cells
T1 sequence (O95977 1-384): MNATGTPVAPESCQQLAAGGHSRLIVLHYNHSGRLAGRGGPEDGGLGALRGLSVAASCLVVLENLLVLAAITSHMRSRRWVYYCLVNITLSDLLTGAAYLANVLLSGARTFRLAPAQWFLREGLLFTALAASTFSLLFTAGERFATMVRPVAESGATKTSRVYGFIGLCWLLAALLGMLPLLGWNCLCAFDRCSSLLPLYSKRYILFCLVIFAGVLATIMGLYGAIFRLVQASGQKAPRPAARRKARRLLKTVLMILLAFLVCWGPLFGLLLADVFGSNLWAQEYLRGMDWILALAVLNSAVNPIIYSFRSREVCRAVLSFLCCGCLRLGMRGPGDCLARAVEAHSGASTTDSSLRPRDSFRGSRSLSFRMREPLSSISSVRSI
Nature of the data set: Inhibitory activity on binding of [3H]-S1P to EDG-6 (EDG-6-overexpressing cells). As to conditions: competitive binding test, 5 nM D-erythro-sphingosine-3-[3H]-1-phosphate, 60 minutes on ice. How it is done:
Firstly, EDG-6-overexpressing cells were seeded at a density of 2×10^5 cells/well into a 12-well plate. After 12 hours, the cells were washed with 0.5 mL of an assay buffer twice. In a saturation binding test for determining the KD value and the Bmax value, the cells were incubated in 0.4 mL of an assay buffer containing D-erythro-sphingosine-3-[^3H]-1-phosphate at various concentrations and 2 μL of 0.01 N NaOH for 60 minutes on ice. Then, the wells were washed with 0.8 mL of the assay buffer twice and the whole cells were disrupted by adding 0.1 mL of 0.5% TCA (trichloroacetic acid), 0.4 mL of a lysis buffer (2% Na2CO3, 4% NaOH, 0.1% SDS) and 0.1 mL of 1 N hydrochloric acid. Then, 0.5 mL of the lysed solution was collected in a glass vial (Packard) with a pipette. After adding 7 mL of ACSII (Amersham), the mixture was thoroughly stirred and the radioactivity was measured with a liquid scintillation counter (TRI-CARB 2900TR Packard), thereby determining the KD value. The value of the nonspecific binding was determined by adding unlabeled S1P at a final concentration of 25 μM as a substitute for 0.01 N NaOH. […] The subsequent procedures following washing were carried out as in the saturation binding test and the radioactivity was measured as described above.

Data set [3] addresses Human EDG-1 (Homo sapiens, UniProt P21453). Nature of the data set: Agonistic activity against EDG by monitoring intracellular calcium ion concentration [Ca2+]i. The conditions noted are these: human EDG-1 overexpressing CHO cells, increase ratio of [Ca2+]i. The format is cell-based. How it is done:
Human EDG-1, EDG-3, EDG-5 or EDG-8 gene overexpressing Chinese Hamster Ovary (CHO) cells were cultured in Ham's F12 medium (manufactured by GIBCO BRL) containing 10% FBS (fetal bovine serum), penicillin/streptomycin and blasticidin (5 μg/ml). The cultured cells were incubated in a 5 μM Fura2-AM solution (Ham's F12 medium containing 10% of FBS, 20 mM HEPES buffer (pH7.4) and 2.5 mM probenecid) at 37° C. for 60 minutes. After washing once with Hanks solution containing […] buffer (pH7.4) and 2.5 mM probenecid, the plate was soaked in the same solution until assay. Then, the plate was set on a fluorescent drug screening system (FDSS 6000; Hamamatsu Photonics) and the intracellular calcium ion concentration was measured without stimulation for 30 seconds. A test compound (final concentration: 1 nM to 10 μM, dimethylsulfoxide (DMSO) solution) was added and S1P (final concentration: 100 nM) was added 5 minutes thereafter. Then, the increase in the intracellular calcium ion concentration was measured before and after the addition of S1P at intervals of 3 seconds (excitation wavelength: 340 nm and 380 nm, fluorescence wavelength: 500 nm). […]
On the technique in general: A change in cytosolic calcium serves as a functional read-out for many receptors and channels.

The conditions of data set [4]: after administration; cited from earlier work.
The conditions of data set [5]: cited from earlier work.
Data set [6] relates to S1P receptor. The conditions noted are these: cited from earlier work.

Structures are written as SMILES.

Chain of Human EDG-1 (P21453 whole entry): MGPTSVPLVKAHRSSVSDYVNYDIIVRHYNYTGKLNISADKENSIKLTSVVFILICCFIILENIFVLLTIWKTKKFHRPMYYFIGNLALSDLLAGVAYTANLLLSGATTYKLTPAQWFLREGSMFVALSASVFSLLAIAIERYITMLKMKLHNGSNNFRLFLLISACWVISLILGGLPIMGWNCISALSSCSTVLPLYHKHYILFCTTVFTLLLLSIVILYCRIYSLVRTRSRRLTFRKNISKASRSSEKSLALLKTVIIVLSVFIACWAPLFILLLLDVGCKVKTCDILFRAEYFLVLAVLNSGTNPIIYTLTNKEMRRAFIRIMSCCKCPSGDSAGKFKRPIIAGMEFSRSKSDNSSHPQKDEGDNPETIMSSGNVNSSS

The molecule `CC1=C(CNCCC(=O)O)CCc2cc(OCCCCc3ccccc3)ccc21.Cl` showed a melting point of 162.5 to 163.3 °C.

In the case of `CC1=C(CN2CC(C(=O)O)C2)CCc2cc(OCCC(c3ccccc3)c3ccccc3)ccc21.Cl`, the melting point lay within 77 to 83 °C.

In turn, `CC1=C(CN2CC(C(=O)O)C2)CCc2cc(OCC(C)(C)Cc3ccccc3)ccc21.Cl` gave a melting point of 124 to 127 °C.

In the case of `O=C(O)CCNCCCc1ccc(OCCCCCc2ccccc2)cc1` [3-[3-(4-(5-phenylpentyloxy)phenyl)propylamino]propanoic acid], the “number of lymphocyte in blood” value in data set [1] is recorded as “concentration-dependently lowered the number of lymphocyte in blood”. Also, the affinity in data set [2] corresponds to a Ki of 0.352 µM. For the same molecule, the EC50 in data set [3] amounted to 0.255 µM.

In the case of `CCCCCCCCc1ccc(CCC(N)(CO)CO)cc1.Cl` [FTY720, 2-amino-2-[2-(4-octylphenyl)ethyl]-1,3-propanediol hydrochloride], the “side effect (bradycardia)” value in data set [4] was “causing bradycardia after administration”. Besides, the “incidence rate of acute rejection” value in data set [5] (human kidney transplantation) is “significantly lowering the incidence rate of acute rejection”. In addition, in data set [5] (human, in vivo), the “lymphocyte count in the peripheral blood” value is on record as “reducing the lymphocyte count in the peripheral blood”.

With `CCCCCCCCc1ccc(CCC(N)(CO)COP(=O)(O)O)cc1` (stereo not shown) [phosphorylated FTY720], the “binding to S1P receptor subtypes” value in data set [6] is “binds to multiple subtypes of the S1P receptors, i.e., EDG-1, EDG-3, EDG-6 and EDG-8”.
